Reference: patent US20230250392A1, “MEDIA AND METHODS FOR ENHANCING THE SURVIVAL AND PROLIFERATION OF STEM CELLS” (STEMCELL TECHNOLOGIES CANADA INC., priority 2017, published 2023)

Legend:
Format in all cases: cell-based, human
[1] = system: WLS-1C, H1 and STiPS-F016 cells; assay: Example 8: cloning efficiency with lipid poor albumin loaded with one, two or three fatty acids; settings: for cloning efficiency in comparison to the 3 fatty acid-loaded albumin: H1, WLS-1C, STiPS-F016, fatty acid loaded on lipid poor albumin at 600 μg per gram, final 6 ng/mL
Method: In particular, each of the one or more fatty acids was incubated with albumin at a concentration of 600 μg of each fatty acid per gram of albumin. The product of such incubation was subsequently added to the culture medium at a final concentration of 6 ng/mL.

H1 and WLS-1C hPSCs = assay: Example 12: cloning efficiency with individual free fatty acids in the presence of a carrier; settings: 600 μg free fatty acid per gram of carrier spiked into mTeSR1 plus 10 μM Y-27632
Method: 12-well culture plates were coated with 0.5 mL of cloning matrix or extracellular matrix (1:25 dilution in […] Dilution Buffer) and placed at room temperature for 1 hour. The matrix was then aspirated and 1 mL of media (mTeSRTM1 or TeSRTM-E8TM supplemented with either 10 μM Y27632 or media comprising lipid-enriched albumin, GABA, pipecolic acid, lithium chloride, FGF, TGFβ and Y-27632 (hereafter termed cloning supplement)) was added to each well and the plate was placed at 37° C. for 1 hour. hPSC lines were dissociated to single cells and seeded into the pre-warmed plates at 25 cells/cm^2 and placed at 37° C. for two days. The cells were then fed with fresh media (mTeSRTM1 or TeSRTM-E8TM supplemented with either 10 μM Y-27632 or cloning supplement) and placed at 37° C. for two days. On day four the cells were then fed with 1 mL of mTeSRTM1 or TeSRTM-E8TM without additives and fed daily until day seven. Cells were then fixed using 4% paraformaldehyde and stained for alkaline phosphatase. Undifferentiated colonies were then counted and cloning efficiency was determined using the following calculation: (Number of undifferentiated colonies at day seven (per well)/Number of cells seeded at day zero (per well))×100. (Error bars represent standard deviation from three biological replicates). In this experiment, 600 μg of the shown free fatty acids were spiked into culture medium (mTeSRTM1 plus 10 μM Y-27632) per gram of carrier also spiked into the culture medium. Cloning efficiencies were calculated as described in Example 1, for example.

WLS-1C and H1 cells = assay: Example 11: cloning efficiency with albumins of different suppliers with or without two free fatty acids; settings: for cloning efficiency of albumin without the additional two free fatty acids: compared among suppliers' albumins; for cloning efficiency when albumin is provided along with two free fatty acids: versus the same albumin without added fatty acids
H1, WLS-1C, and H9 hPSCs = assay: Example 13: cloning efficiency with detrimental fatty acids loaded onto a BSA sample; settings: 300 μg/g loaded onto a specific BSA sample
Method: In the experiment shown in FIG. 13, 300 μg/g of either arachidonic acid or α-linolenic acid were loaded onto a specific BSA sample and added to a culture comprising H1, WLS-1C, and H9 hPSCs.

CCCCC/C=C\C/C=C\CCCCCCCC(=O)O [linoleic acid]
cloning efficiency relative to control and oleic and/or palmitic acid ([1]; WLS-1C and H1, only this fatty acid loaded on albumin at 600 μg per gram): reduce cloning efficiency

CCCCCCCCCCCCCC(=O)O [myristic acid]
effect on survival and proliferation (cloning efficiency) (H1 and WLS-1C hPSCs): helpful in enhancing the survival and proliferation

A2: BSA of Supplier A lot 2, already comprising 3000-7000 ug/g overall fatty acid
cloning efficiency of albumin without the additional two free fatty acids (WLS-1C and H1 cells): lowest cloning efficiencies
cloning efficiency when albumin is provided along with two free fatty acids (WLS-1C and H1 cells): not enhanced

CCCCCCCCCCCCCCCC(=O)O [palmitic acid]
cloning efficiency in comparison to the 3 fatty acid-loaded albumin [1]: comparable cloning efficiencies
effect on survival and proliferation (cloning efficiency) (H1 and WLS-1C hPSCs): helpful in enhancing the survival and proliferation

CCCCCCCC/C=C\CCCCCCCC(=O)O [oleic acid]
cloning efficiency in comparison to the 3 fatty acid-loaded albumin [1]: comparable cloning efficiencies
effect on survival and proliferation (cloning efficiency) (H1 and WLS-1C hPSCs): helpful in enhancing the survival and proliferation

CCCCCCCCCCCCCCCCCC(=O)O [stearic acid]
effect on survival and proliferation (cloning efficiency) (H1 and WLS-1C hPSCs): helpful in enhancing the survival and proliferation

CC/C=C\C/C=C\C/C=C\CCCCCCCC(=O)O [α-linolenic acid]
cloning efficiency of the tested BSA sample (H1, WLS-1C, and H9 hPSCs): decreased the cloning efficiency
effect on survival and proliferation (cloning efficiency) (H1 and WLS-1C hPSCs): detrimental

A1: BSA of Supplier A lot 1, already comprising 3000-7000 ug/g overall fatty acid
cloning efficiency of albumin without the additional two free fatty acids (WLS-1C and H1 cells): lowest cloning efficiencies
cloning efficiency when albumin is provided along with two free fatty acids (WLS-1C and H1 cells): not enhanced

CC(C)CCC[C@@H](C)[C@H]1CC[C@H]2[C@@H]3CC=C4C[C@@H](O)CC[C@]4(C)[C@H]3CC[C@]12C [cholesterol]
effect on survival and proliferation (cloning efficiency) (H1 and WLS-1C hPSCs): helpful in enhancing the survival and proliferation

CCCCC/C=C\C/C=C\C/C=C\C/C=C\CCCC(=O)O [arachidonic acid]
cloning efficiency of the tested BSA sample (H1, WLS-1C, and H9 hPSCs): decreased the cloning efficiency
effect on survival and proliferation (cloning efficiency) (H1 and WLS-1C hPSCs): detrimental
